From patent US11117947B2, “Double-acylated GLP-1 derivatives” (Novo Nordisk A/S, priority 2011, dated 2021)
Numbered stars: 1 amine (or outer) side, 2 acyl side, 3 side chain; on linkers, the order of the positions; unused ones are H or OH. Side chains are listed from the residue outwards. Peptide text beside a SMILES is read from it. * marks the point of attachment. Decanoyl(10-(4-HOOC-PhO)) = O=C(O)c1ccc(OCCCCCCCCCC(=O)*)cc1; γGlu = O=C(O)[C@H](CCC(=O)[*:2])N[*:1]; C14 diacid = O=C(O)CCCCCCCCCCCCC(=O)*; AEEA = NCCOCCOCC(=O)O

Experiment: Estimate of oral bioavailability: gut injection in rat (caprate), exposure in plasma
Assay type: in vivo
Settings: injection in jejunum, 1000 uM in 55 mg/ml sodium caprate, plasma concentration (pM) at 30 min divided by dosing solution concentration (μM), mean n=4
Method: The GLP-1 derivatives were tested in a concentration of 1000 uM in a solution of 55 mg/ml sodium caprate.
Male Sprague Dawley rats with a body weight upon arrival of approximately 240 g were obtained from Taconic (Denmark) and assigned to the different treatments by simple randomisation, 4 rats per group.
The GLP-1 derivatives were administered in the jejunum either in the proximal part (10 cm distal for the duodenum) or in the mid-intestine (50 cm proximal for the cecum). A PE50-catheter, 10 cm long was inserted into the jejunum, forwarded at least 1.5 cm into the jejunum, and secured before dosing by ligature around the gut and the catheter with 3/0 suture distal to tip to prevent leak or catheter displacement. Catheter was placed without syringe and needle and 2 ml saline was administered into abdomen before closing the incision with wound clips.
100 μl of the respective GLP-1 derivative was injected into the jejunal lumen through the catheter with a 1 ml syringe. Subsequently, 200 μl of air was pushed into the jejunal lumen with another syringe to “flush” the catheter. This syringe was leaved connected to the catheter to prevent flow back into the catheter.
Blood samples (200 ul) were collected at desired intervals (usually at times 0, 10, 30, 60, 120 and 240 min) into EDTA tubes from the tail vein and centrifuged 5 minutes, 10000G, at 4° C. within 20 minutes. […] 12, p. 240-247. The donor beads were coated with streptavidin, while acceptor beads were conjugated with a monoclonal antibody recognising a mid-/C-terminal epitope of the peptide. Another monoclonal antibody, specific for the N-terminus, was biotinylated. The three reactants were combined with the analyte and formed a two-sited immuno-complex. Illumination of the complex released singlet oxygen atoms from the donor beads, which were channeled into the acceptor beads and triggered chemiluminescence which was measured in an Envision plate reader. The amount of light was proportional to the concentration of the compound.
After the blood sampling the rats were sacrificed under anaesthesia and the abdomen was opened to verify correct catheter placement.
The mean (n=4) plasma concentrations (pmol/l) were determined as a function of time.

| SMILES | Dose-corrected exposure at 30 min |
| --- | --- |
| CC[C@H](C)[C@H](NC(=O)[C@H](Cc1ccccc1)NC(=O)[C@H](CCCCNC(=O)CC[C@H](NC(=O)COCCOCCNC(=O)COCCOCCNC(=O)CCCCCCCCCCCCC(=O)O)C(=O)O)NC(=O)[C@H](CCCNC(=N)N)NC(=O)[C@H](C)NC(=O)[C@H](C)NC(=O)[C@H](CCC(N)=O)NC(=O)[C@H](CCCCNC(=O)CC[C@H](NC(=O)COCCOCCNC(=O)COCCOCCNC(=O)CCCCCCCCCCCCC(=O)O)C(=O)O)NC(=O)[C@H](CCC(=O)O)NC(=O)[C@H](CC(C)C)NC(=O)[C@H](Cc1ccc(O)cc1)NC(=O)[C@H](CO)NC(=O)[C@H](CO)NC(=O)[C@@H](NC(=O)[C@H](CC(=O)O)NC(=O)[C@H](CO)NC(=O)[C@@H](NC(=O)[C@H](Cc1ccccc1)NC(=O)[C@@H](NC(=O)CNC(=O)[C@H](CCC(=O)O)NC(=O)[C@H](C)NC(=O)[C@@H](N)Cc1c[nH]cn1)[C@@H](C)O)[C@@H](C)O)C(C)C)C(=O)N[C@@H](C)C(=O)N[C@@H](Cc1c[nH]cn1)C(=O)N[C@@H](CC(C)C)C(=O)N[C@H](C(=O)NCC(=O)O)C(C)C [Example 14, N^ε22-[(4S)-4-carboxy-4-[[2-[2-[2-[[2-[2-[2-(13-carboxytridecanoylamino)ethoxy]ethoxy]acetyl]amino]ethoxy]ethoxy]acetyl]amino]butanoyl], N^ε27-[(4S)-4-carboxy-4-[[2-[2-[2-[[2-[2-[2-(13-carboxytridecanoylamino)ethoxy]ethoxy]acetyl]amino]ethoxy]ethoxy]acetyl]amino]butanoyl]-[Lys^22,Arg^26,Lys^27,His^31,Gly^34]-GLP-1-(7-34)-peptide] (H-HAEGTFTSDVSSYLEK([γGlu-AEEA-AEEA-C14 diacid])QAARK([γGlu-AEEA-AEEA-C14 diacid])FIAHLVG-OH; N-terminus and C-terminus assumed) | 121 |
| CC[C@H](C)[C@H](NC(=O)[C@H](Cc1ccccc1)NC(=O)[C@H](CCCCNC(=O)COCCOCCNC(=O)COCCOCCNC(=O)CC[C@H](NC(=O)CCCCCCCCCOc1ccc(C(=O)O)cc1)C(=O)O)NC(=O)[C@H](CCCNC(=N)N)NC(=O)[C@@H](NC(=O)[C@H](C)NC(=O)[C@H](CCC(N)=O)NC(=O)[C@H](CCC(=O)O)NC(=O)[C@H](CCC(=O)O)NC(=O)[C@H](CC(C)C)NC(=O)[C@H](Cc1ccc(O)cc1)NC(=O)[C@H](CO)NC(=O)[C@H](CO)NC(=O)[C@@H](NC(=O)[C@H](CC(=O)O)NC(=O)[C@H](CO)NC(=O)[C@@H](NC(=O)[C@H](Cc1ccccc1)NC(=O)[C@@H](NC(=O)CNC(=O)[C@H](CCC(=O)O)NC(=O)[C@H](C)NC(=O)[C@@H](N)Cc1c[nH]cn1)[C@@H](C)O)[C@@H](C)O)C(C)C)C(C)C)C(=O)N[C@@H](C)C(=O)N[C@@H](Cc1c[nH]c2ccccc12)C(=O)N[C@@H](CC(C)C)C(=O)N[C@H](C(=O)N[C@@H](CCCNC(=N)N)C(=O)NCC(=O)N[C@@H](CCCNC(=N)N)C(=O)N[C@@H](CCCCNC(=O)COCCOCCNC(=O)COCCOCCNC(=O)CC[C@H](NC(=O)CCCCCCCCCOc1ccc(C(=O)O)cc1)C(=O)O)C(=O)O)C(C)C [Example 4, N^ε27-[2-[2-[2-[[2-[2-[2-[[(4S)-4-carboxy-4-[10-(4-carboxyphenoxy)decanoylamino]butanoyl]amino]ethoxy]ethoxy]acetyl]amino]ethoxy]ethoxy]acetyl], N^ε37-[2-[2-[2-[[2-[2-[2-[[(4S)-4-carboxy-4-[10-(4-carboxyphenoxy)decanoylamino]butanoyl]amino]ethoxy]ethoxy]acetyl]amino]ethoxy]ethoxy]acetyl]-[Glu^22,Val^25,Arg^26,Lys^27,Arg^34,Lys^37]-GLP-1-(7-37)-peptide] (H-HAEGTFTSDVSSYLEEQAVRK([AEEA-AEEA-γGlu-Decanoyl(10-(4-HOOC-PhO))])FIAWLVRGRK([AEEA-AEEA-γGlu-Decanoyl(10-(4-HOOC-PhO))])-OH; N-terminus and C-terminus assumed) | 39 |
| CC[C@H](C)[C@H](NC(=O)[C@H](Cc1ccccc1)NC(=O)[C@H](CCCCNC(=O)COCCOCCNC(=O)COCCOCCNC(=O)CC[C@H](NC(=O)CCCCCCCCCOc1ccc(C(=O)O)cc1)C(=O)O)NC(=O)[C@H](CCCNC(=N)N)NC(=O)[C@@H](NC(=O)[C@H](C)NC(=O)[C@H](CCC(N)=O)NC(=O)CNC(=O)[C@H](CCC(=O)O)NC(=O)[C@H](CC(C)C)NC(=O)[C@H](Cc1ccc(O)cc1)NC(=O)[C@H](CO)NC(=O)[C@H](CO)NC(=O)[C@@H](NC(=O)[C@H](CC(=O)O)NC(=O)[C@H](CO)NC(=O)[C@@H](NC(=O)[C@H](Cc1ccccc1)NC(=O)[C@@H](NC(=O)CNC(=O)[C@H](CCC(=O)O)NC(=O)[C@H](C)NC(=O)[C@@H](N)Cc1c[nH]cn1)[C@@H](C)O)[C@@H](C)O)C(C)C)C(C)C)C(=O)N[C@@H](CCC(=O)O)C(=O)N[C@@H](Cc1c[nH]c2ccccc12)C(=O)N[C@@H](CC(C)C)C(=O)N[C@H](C(=O)N[C@@H](CCC(N)=O)C(=O)NCC(=O)N[C@@H](CCCCNC(=O)COCCOCCNC(=O)COCCOCCNC(=O)CC[C@H](NC(=O)CCCCCCCCCOc1ccc(C(=O)O)cc1)C(=O)O)C(=O)NCC(=O)N[C@@H](CCC(=O)O)C(=O)O)C(C)C [Example 13, N^ε27-[2-[2-[2-[[2-[2-[2-[[(4S)-4-carboxy-4-[10-(4-carboxyphenoxy)decanoylamino]butanoyl]amino]ethoxy]ethoxy]acetyl]amino]ethoxy]ethoxy]acetyl], N^ε36-[2-[2-[2-[[2-[2-[2-[[(4S)-4-carboxy-4-[10-(4-carboxyphenoxy)decanoylamino]butanoyl]amino]ethoxy]ethoxy]acetyl]amino]ethoxy]ethoxy]acetyl]-[Val^25,Arg^26,Lys^27,Glu^30,Gln^34,Lys^36]-GLP-1-(7-37)-peptidyl-Glu] (H-HAEGTFTSDVSSYLEGQAVRK([AEEA-AEEA-γGlu-Decanoyl(10-(4-HOOC-PhO))])FIEWLVQGK([AEEA-AEEA-γGlu-Decanoyl(10-(4-HOOC-PhO))])GE-OH; N-terminus and C-terminus assumed) | 126 |
